Calls of active or inactive are those of the source. The rule behind the calls is not given here.
Key:
[1] = target: T1, Type-1 angiotensin II receptor (Oryctolagus cuniculus) (UniProt P34976); test: Affinity for Angiotensin II receptor, type 1 as antagonism of angII contractile effect in rabbit isolated thoracic aorta; assay type: functional, tissue-based
T1 sequence (whole entry): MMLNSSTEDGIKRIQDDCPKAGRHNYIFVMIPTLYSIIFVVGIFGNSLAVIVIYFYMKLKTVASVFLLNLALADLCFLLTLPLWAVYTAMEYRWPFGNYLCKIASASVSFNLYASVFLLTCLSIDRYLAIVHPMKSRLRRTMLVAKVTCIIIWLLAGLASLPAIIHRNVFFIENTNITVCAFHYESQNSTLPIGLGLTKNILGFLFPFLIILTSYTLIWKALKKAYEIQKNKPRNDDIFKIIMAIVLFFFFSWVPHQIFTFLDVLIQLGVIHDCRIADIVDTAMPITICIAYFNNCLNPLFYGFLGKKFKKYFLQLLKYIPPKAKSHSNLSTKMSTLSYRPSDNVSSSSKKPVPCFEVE

Rattus norvegicus [2] = organism: Rattus norvegicus; test: Oral activity in renal artery ligated rat model was determined; no significant activity.; assay type: functional, organism-based
Rattus norvegicus [3] = test: Oral activity in renal artery ligated rat model was determined; excellent significant activity causing large and sustained fall in blood pressure at a dose of 1 mg/Kg.; assay type: functional, organism-based

Structure (SMILES)	pKB [1]	Activity (Rattus norvegicus [2])	Activity (Rattus norvegicus [3])
CCCCc1nc(Cl)c(C(=O)NCC(N)=O)n1Cc1ccc2oc(-c3ccccc3-c3nn[nH]n3)c(Br)c2c1	9.4	inactive	
CCCCc1nc(Cl)c(C(=O)N[C@H](Cc2ccccc2)C(=O)O)n1Cc1ccc2oc(-c3ccccc3-c3nn[nH]n3)c(Br)c2c1	8	inactive	
CCCCc1nc(Cl)c(C(=O)N[C@@H](C)C(=O)O)n1Cc1ccc2oc(-c3ccccc3-c3nn[nH]n3)c(Br)c2c1	8.9	inactive	
CCCCc1nc(Cl)c(C(=O)NCC(=O)OCC)n1Cc1ccc2oc(-c3ccccc3-c3nn[nH]n3)c(Br)c2c1	9.3		Active
CCCCc1nc(Cl)c(C(=O)N[C@@H](C(=O)O)[C@H](C)CC)n1Cc1ccc2oc(-c3ccccc3-c3nn[nH]n3)c(Br)c2c1	9.2	inactive	
CCCCc1nc(Cl)c(C(=O)N[C@H](C)C(=O)O)n1Cc1ccc2oc(-c3ccccc3-c3nn[nH]n3)c(Br)c2c1	9	inactive	
CCCCc1nc(Cl)c(C(=O)NCC(=O)O)n1Cc1ccc2oc(-c3ccccc3-c3nn[nH]n3)c(Br)c2c1	9.4	inactive	
CCCCc1ncc(C=C(Cc2cccs2)C(=O)O)n1Cc1ccc2oc(-c3ccccc3-c3nn[nH]n3)c(Br)c2c1	10.9		

Source: ChEMBL document CHEMBL1127120, “Benzofuran based angiotensi II antagonists related to GR117289: Part II; amino acid amides” (Bioorg Med Chem Lett, 1993)
